Values after ≈ are worked out from the molar mass of the structure shown.
What was measured:
[1] = tested on: K. pneumonia (ATCC 43816); experiment: Minimal Inhibitory Concentration (MIC) assay, K. pneumonia; type: cell-based; settings: Klebsiella pneumoniae; K. pneumoniae ATCC43816, CAMHB, 20 hours at 35° C.; read-out: MIC K. pneumoniae ATCC43816
Protocol: (§1) Example 122: Minimal Inhibitory Concentration Protocol (MIC) Assay
(§2) The in vitro potency of compounds to inhibit E. coli (ATCC 25922) and K. pneumonia (ATCC 43816) growth was assessed by MIC (Minimal Inhibitory Concentration) assay. Samples were prepared from 10 mM DMSO stock solutions. After serial 2-fold dilution in DMSO in a master plate (Greiner, Cat No: 651201), 180 μL sterile distilled water was added to 20 μL each aliquot of the samples. Then 10 μL diluted compounds were transferred into a new assay plate (Costar, 3599).
(§3) The growth medium Cation-Adjusted Mueller Hinton Broth (CAMHB) was prepared by adding the 20 mg per liter CaCl2) and 20 mg per liter MgCl2 into the MHB medium (Jianglai Company, sterilized).
(§4) Vials of each of the test microorganisms were maintained frozen in the vapor phase of a liquid nitrogen freezer. The bacteria E. coli ATCC 25922 (KWIKSTIK, 0335K) and K. pneumonia ATCC 43816 were taken out from liquid nitrogen freezer, then thawed in room temperature, and diluted in the CAMHB medium to achieve a final inoculum of 5×10^5 CFU/mL. 90 μL CAMHB with bacteria was dispensed to the assay plate and pipetted 5 times.
(§5) Then the assay plates were incubated for 20 hours at 35° C. in ambient air. Following incubation, the MIC (μg/mL), the lowest concentration of drug that inhibits visible growth of the microorganism was read and recorded throw the microscope.

E. coli (ATCC 25922) = experiment: Minimal Inhibitory Concentration (MIC) assay, E. coli; type: cell-based; settings: Escherichia coli, ATCC25922; E. coli ATCC 25922, CAMHB, 20 hours at 35° C.; read-out: MIC E. coli ATCC 25922
Protocol: as §1, §2, §3, §4, §5

[2] = target: Escherichia coli LpxH (UDP-2,3-diacylglucosamine hydrolase) (Escherichia coli (strain K12), UniProt P43341); experiment: 50% Inhibitory Concentration (IC50) to LpxH, UMP/CMP-Glo Glycosyltransferase Assay kit; type: biochemical
Protocol: Example 121: 50% Inhibitory Concentration (IC50) to UDP-2,3-diacylglucosamine hydrolase (LpxH)
The inhibitory potency of molecules to UDP-2,3-diacylglucosamine hydrolase (LpxH) was determined using the UMP/CMP-Glo™ Glycosyltransferase Assay kit. LpxH hydrolyzes the pyrophosphate bond of UDP-2,3-diacylglucosamine (UDP-DAG) to yield 2,3-diacylglucosamine 1-phosphate (lipid X) and UMP. The assay kit could quantify the UMP production by convert the UMP to ATP and generate light in a luciferase reaction. The compound's effect on the LpxH activity is detected by measuring the light using a luminometer (Envision).

Chain of Escherichia coli LpxH (UDP-2,3-diacylglucosamine hydrolase) (P43341 whole entry): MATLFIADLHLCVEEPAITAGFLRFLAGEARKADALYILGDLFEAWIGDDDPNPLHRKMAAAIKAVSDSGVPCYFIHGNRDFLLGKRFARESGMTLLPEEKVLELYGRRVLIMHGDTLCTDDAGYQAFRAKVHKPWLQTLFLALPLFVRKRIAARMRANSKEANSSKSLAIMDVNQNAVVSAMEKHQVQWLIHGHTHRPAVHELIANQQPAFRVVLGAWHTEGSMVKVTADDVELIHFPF

Row | SMILES | MIC [1] [µg/mL] | MIC (E. coli (ATCC 25922)) [µg/mL] | IC50 [2] [nM]
1 | NC1CC(=O)N(c2ccc(S(=O)(=O)N3CCN(c4cc(C(F)(F)F)cc(Cl)n4)CC3)cc2)C1 (centres unmarked) [Example 1, 4-Amino-1-[4-[4-[6-chloro-4-(trifluoromethyl)-2-pyridyl]piperazin-1-yl]sulfonylphenyl]pyrrolidin-2-one] | 1.93 (≈ 3.83 µM) | 1.45 (≈ 2.88 µM) | 260
2 | O=C1O[C@@H]2[C@@H](O)[C@H](CO)[C@@H](O)O[C@@H]2N1c1ccc(S(=O)(=O)N2CCN(c3cc(C(F)(F)F)cc(Cl)n3)CC2)cc1 [Example 23, (3aS,5S,6S,7S,7aR)-3-[4-[4-[6-chloro-4-(trifluoromethyl)-2-pyridyl]piperazin-1-yl]sulfonylphenyl]-5,7-dihydroxy-6-(hydroxymethyl)-5,6,7,7a-tetrahydro-3aH-pyrano[2,3-d]oxazol-2-one] | 60.9 (≈ 100 µM) | 30.4 (≈ 50 µM) | –
3 | O=C1CC(N2CCNCC2)CN1c1ccc(S(=O)(=O)N2CCN(c3cc(C(F)(F)F)cc(Cl)n3)CC2)cc1 (centres unmarked) [Example 47, 1-[4-[4-[6-Chloro-4-(trifluoromethyl)-2-pyridyl]piperazin-1-yl]sulfonylphenyl]-4-piperazin-1-yl-pyrrolidin-2-one] | 5.71 (≈ 9.96 µM) | 1.91 (≈ 3.33 µM) | –
4 | NC1CCN(C2CC(=O)N(c3ccc(S(=O)(=O)N4CCN(c5cc(C(F)(F)F)cc(Cl)n5)CC4)cc3)C2)C1 (centres unmarked) [Example 50, 4-(3-Aminopyrrolidin-1-yl)-1-[4-[4-[6-chloro-4-(trifluoromethyl)-2-pyridyl]piperazin-1-yl]sulfonylphenyl]pyrrolidin-2-one] | 3.81 (≈ 6.65 µM) | 1.91 (≈ 3.33 µM) | –
5 | NC1CC(=O)N(c2ccc(S(=O)(=O)N3CCN(c4cc(C(F)(F)F)cc(Cl)n4)CC3)cn2)C1 (centres unmarked) [Example 62, 4-Amino-1-[5-[4-[6-chloro-4-(trifluoromethyl)-2-pyridyl]piperazin-1-yl]sulfonyl-2-pyridyl]pyrrolidin-2-one] | 15.5 (≈ 30.6 µM) | 7.74 (≈ 15.3 µM) | –
6 | Cc1cc(C(F)(F)F)nc(N2CCN(S(=O)(=O)c3ccc(N4CC(N)CC4=O)cc3)CC2)n1 (centres unmarked) [Example 65, 4-Amino-1-[4-[4-[4-methyl-6-(trifluoromethyl)pyrimidin-2-yl]piperazin-1-yl]sulfonylphenyl]pyrrolidin-2-one] | 7.48 (≈ 15.4 µM) | 3.74 (≈ 7.72 µM) | –
7 | [2H]C([2H])([2H])c1cc(C(F)(F)F)nc(N2CCN(S(=O)(=O)c3ccc(N4CC(N)CC4=O)cc3)CC2)n1 (centres unmarked) [Example 66, 4-Amino-1-[4-[4-[4-(trideuteriomethyl)-6-(trifluoromethyl)pyrimidin-2-yl]piperazin-1-yl]sulfonylphenyl]pyrrolidin-2-one] | 7.52 (≈ 15.4 µM) | 3.76 (≈ 7.71 µM) | –
8 | NC1CC(=O)N(c2ccc(S(=O)(=O)N3CCN(c4cc(Cc5ccccc5)cc(Cl)n4)CC3)cc2)C1 (centres unmarked) [Example 74, 4-Amino-1-[4-[4-(4-benzyl-6-chloro-2-pyridyl)piperazin-1-yl]sulfonylphenyl]pyrrolidin-2-one] | 1.18 (≈ 2.24 µM) | 1.18 (≈ 2.24 µM) | –
9 | NC1CC(=O)N(c2ccc(S(=O)(=O)N3CCN(c4cc(C5(c6ccccc6)CC5)cc(Cl)n4)CC3)cc2)C1 (centres unmarked) [Example 75, 4-Amino-1-[4-[4-[6-chloro-4-(1-phenylcyclopropyl)-2-pyridyl]piperazin-1-yl]sulfonylphenyl]pyrrolidin-2-one] | 1.22 (≈ 2.21 µM) | 1.22 (≈ 2.21 µM) | –
10 | NC1CC(=O)N(c2ccc(S(=O)(=O)N3CCN(c4nc(Cl)cc(C(F)(F)c5ccccc5)n4)CC3)cc2)C1 (centres unmarked) [Example 78, 4-Amino-1-[4-[4-[4-chloro-6-[difluoro(phenyl)methyl]pyrimidin-2-yl]piperazin-1-yl]sulfonylphenyl]pyrrolidin-2-one] | 1.76 (≈ 3.13 µM) | 0.22 (≈ 0.391 µM) | –
11 | NC1CC(=O)N(c2ccc(S(=O)(=O)N3CCN(c4nc(C5CC5)cc(C(F)(F)c5ccccc5)n4)CC3)cc2)C1 (centres unmarked) [Example 80, 4-Amino-1-[4-[4-[4-cyclopropyl-6-[difluoro(phenyl)methyl]pyrimidin-2-yl]piperazin-1-yl]sulfonylphenyl]pyrrolidin-2-one] | > 28.4 | > 28.4 | –
12 | COc1nc(N2CCN(S(=O)(=O)c3ccc(N4CC(N)CC4=O)cc3)CC2)cc(C(F)(F)c2ccccc2)n1 (centres unmarked) [Example 81, 4-Amino-1-[4-[4-[6-[difluoro(phenyl)methyl]-2-methoxy-pyrimidin-4-yl]piperazin-1-yl]sulfonylphenyl]pyrrolidin-2-one] | 6.98 (≈ 12.5 µM) | 4.36 (≈ 7.81 µM) | –
13 | O=C1CC2(CNCCN2)CN1c1ccc(S(=O)(=O)N2CCN(c3cc(C(F)(F)c4ccccc4)cc(Cl)n3)CC2)cc1 (centres unmarked) [Example 85, 2-[4-[4-[6-Chloro-4-[difluoro(phenyl)methyl]-2-pyridyl]piperazin-1-yl]sulfonylphenyl]-2,6,9-triazaspiro[4.5]decan-3-one] | 2.29 (≈ 3.71 µM) | 2.29 (≈ 3.71 µM) | –
14 | NCC1CCC(=O)N1c1ccc(S(=O)(=O)N2CCN(c3cc(C(F)(F)c4ccccc4)cc(Cl)n3)CC2)cc1 (centres unmarked) [Example 86, 5-(Aminomethyl)-1-[4-[4-[6-chloro-4-[difluoro(phenyl)methyl]-2-pyridyl]piperazin-1-yl]sulfonylphenyl]pyrrolidin-2-one] | 1.26 (≈ 2.19 µM) | 1.26 (≈ 2.19 µM) | –
15 | Cc1cnc(C(F)(F)c2cc(Cl)nc(N3CCN(S(=O)(=O)c4ccc(N5C[C@H](N)CC5=O)cc4)CC3)c2)cn1 [Example 111, (4R)-4-amino-1-[4-[4-[6-chloro-4-[difluoro-(5-methylpyrazin-2-yl)methyl]-2-pyridyl]piperazin-1-yl]sulfonylphenyl]pyrrolidin-2-one] | 1.8 (≈ 3.11 µM) | 0.9 (≈ 1.56 µM) | –
16 | Cc1cncc(C(F)(F)c2cc(Cl)nc(N3CCN(S(=O)(=O)c4ccc(N5C[C@H](N)CC5=O)cc4)CC3)c2)n1 [Example 112, (4R)-4-amino-1-[4-[4-[6-chloro-4-[difluoro-(6-methylpyrazin-2-yl)methyl]-2-pyridyl]piperazin-1-yl]sulfonylphenyl]pyrrolidin-2-one] | 0.45 (≈ 0.778 µM) | 0.45 (≈ 0.778 µM) | –
17 | Cc1nc(C(F)(F)c2cc(Cl)nc(N3CCN(S(=O)(=O)c4ccc(N5C[C@H](N)CC5=O)cc4)CC3)c2)cnc1Cl [Example 113, (4R)-4-amino-1-[4-[4-[6-chloro-4-[(5-chloro-6-methyl-pyrazin-2-yl)-difluoro-methyl]-2-pyridyl]piperazin-1-yl]sulfonylphenyl]pyrrolidin-2-one] | 0.51 (≈ 0.833 µM) | 0.26 (≈ 0.424 µM) | –
18 | C[C@H]1CNCC(C(F)(F)c2cc(Cl)nc(N3CCN(S(=O)(=O)c4ccc(N5C[C@H](N)CC5=O)cc4)CC3)c2)O1 (stereo partly drawn) [Example 114, (4R)-4-amino-1-[4-[4-[6-chloro-4-[difluoro-[cis-6-methylmorpholin-2-yl]methyl]-2-pyridyl]piperazin-1-yl]sulfonylphenyl]pyrrolidin-2-one] | 1.8 (≈ 3.08 µM) | 0.91 (≈ 1.56 µM) | –
19 | CC1COC(C(F)(F)c2cc(Cl)nc(N3CCN(S(=O)(=O)c4ccc(N5C[C@H](N)CC5=O)cc4)CC3)c2)CN1 (some centres unmarked) [Example 115] | 1.9 (≈ 3.25 µM) | 0.97 (≈ 1.66 µM) | –
20 | N[C@@H]1CC(=O)N(c2ccc(S(=O)(=O)N3CCN(c4cc(C(F)(F)C56CNC[C@H]5C6)cc(Cl)n4)CC3)cc2)C1 (stereo partly drawn) [Example 116, (4R)-4-amino-1-[4-[4-[4-[[cis-3-azabicyclo[3.1.0]hexan-1-yl]-difluoro-methyl]-6-chloro-2-pyridyl]piperazin-1-yl]sulfonylphenyl]pyrrolidin-2-one] | 0.94 (≈ 1.66 µM) | 0.47 (≈ 0.829 µM) | –
21 | N[C@@H]1CC(=O)N(c2ccc(S(=O)(=O)N3CCN(c4cc(C(F)(F)C5C[C@H]5CO)cc(Cl)n4)CC3)cc2)C1 (stereo partly drawn) [Example 117, (4R)-4-amino-1-[4-[4-[6-chloro-4-[trans-difluoro-[2-(hydroxymethyl)cyclopropyl]methyl]-2-pyridyl]piperazin-1-yl]sulfonylphenyl]pyrrolidin-2-one] | 1.9 (≈ 3.42 µM) | 0.93 (≈ 1.67 µM) | –
22 | NC[C@H]1CC[C@H](C(F)(F)c2cc(Cl)nc(N3CCN(S(=O)(=O)c4ccc(N5C[C@H](N)CC5=O)cc4)CC3)c2)CC1 [Example 118, (4R)-4-amino-1-[4-[4-[4-[[trans-4-(aminomethyl)cyclohexyl]-difluoro-methyl]-6-chloro-2-pyridyl]piperazin-1-yl]sulfonylphenyl]pyrrolidin-2-one] | 0.99 (≈ 1.66 µM) | 0.5 (≈ 0.837 µM) | –
23 | N[C@@H]1CC(=O)N(c2ccc(S(=O)(=O)N3CCN(c4cc(C(F)(F)[C@H]5C[C@H](O)C5)cc(Cl)n4)CC3)cc2)C1 [Example 119, (4R)-4-amino-1-[4-[4-[6-chloro-4-[trans-difluoro-(3-hydroxycyclobutyl)methyl]-2-pyridyl]piperazin-1-yl]sulfonylphenyl]pyrrolidin-2-one] | 0.46 (≈ 0.827 µM) | 0.46 (≈ 0.827 µM) | –
